# Measurements reported in patent publication US10441627B2, “Method of treating prader-willi syndrome” (Ferring B.V., priority 2014, dated 2019).
# Key:
# [1] = system: human oxytocin (hOT) receptor vs human V2 (hV2) receptor; settings: ratio of EC50 values; from Table 2 in WO2009/122285; cited from earlier work
# [2] = system: subjects with Prader-Willi Syndrome (PWS); assay: Double-blind, placebo-controlled clinical trial of carbetocin intranasal spray in subjects with PWS; type: in vivo, human; settings: for Clinical Global Impression, Least-Squares Mean Change Carbetocin vs. Placebo: CGI-I 7-point clinician rating; for HPWSQ-R-C Behavior domain score, Least-Squares Mean Change Carbetocin vs. Placebo / HPWSQ-R-C Drive domain score, Least-Squares Mean Change Carbetocin vs. Placebo / HPWSQ-R-C Severity domain score, Least-Squares Mean Change Carbetocin vs. Placebo / HPWSQ-R-C total score, Least-Squares Mean Change Carbetocin vs. Placebo: clinician rated; for HPWSQ-R total score, Least-Squares Mean Change Carbetocin vs. Placebo / HPWSQ-R Behavior domain score, Least-Squares Mean Change Carbetocin vs. Placebo / HPWSQ-R Drive domain score, Least-Squares Mean Change Carbetocin vs. Placebo / HPWSQ-R Severity domain score, Least-Squares Mean Change Carbetocin vs. Placebo: parent/caregiver rated; for HPWSQ-R total score, Least-Squares Mean Change Carbetocin vs. Placebo: negative = improvement vs placebo
# Protocol: A prospective, double-blind, placebo-controlled, parallel trial in subjects with PWS between 10 and 18 years of age with genetically confirmed diagnosis of PWS and a documented nutritional Phase 3 based on the criteria described in Miller et al, 2011 (Am J Med Genet A, 155A(5):1040-1049) was performed. The trial included a Screening Period, a 14-day Treatment Period, and a Follow-Up Period. Subjects, along with their parent/caregiver, were required to visit the investigational site 4 times over the course of the trial and participate in 2 phone call assessments. The trial schedule is listed below. • Visit 1: Screening Period (Day −7 to Day 0) • Visit 2: Baseline 1st day dosing on site (Day 1) • Visit 3: 2nd day dosing on site (Day 2) • Phone call assessment (Day 8±1) • Visit 4: End-of-Treatment Visit (Day 15) • Follow-up phone call (Day 19±3)
# Following appropriate informed consent procedures, subjects underwent screening evaluations to determine eligibility before randomization. After randomization, efficacy measures and other assessments, including physical examination, vital signs, and collection of blood samples for clinical laboratory and pharmacokinetic evaluation, were performed at selected visits. Subjects were closely monitored for adverse events throughout the trial.
# Prior to first dosing at the investigational site, parents/caregivers were trained on the proper use of the nasal spray device and procedures for investigational medicinal product (IMP) home delivery. Parents/caregivers were instructed to administer 3 intranasal spray pumps of blinded IMP per nostril 3 times daily before meals within the following intervals:
# 38 subjects, 10-18 years of age, with genetically confirmed diagnosis of PWS and documented nutritional phase 3 PWS criteria (based on Miller et al, 2011), were randomized. 36 subjects completed the study.
# The carbetocin intranasal spray was prepared by dissolving […] in 0.9% sterile sodium chloride solution. Specifically, the preweighed carbetocin powder was reconstituted with the sodium chloride solution and subsequently transferred to a nasal spray device. Each spray pump actuation delivered a 50 μL volume of solution containing 1.6 mg carbetocin. Each dose consisted of 3 spray pump actuations in each nostril to deliver a total of 9.6 mg carbetocin. The daily dose of carbetocin was 28.8 mg.
# The primary endpoint measured in this trial was change in the total score from Visit 2 to Visit 4 in Hyperphagia in Prader-Willi Syndrome Questionnaire-Responsiveness (HPWSQ-R), which was completed by the parent/caregiver.
# 1. Clinical Global Impression-Improvement (CGI-I) after treatment at Visit 4.
# 2. Change from Visit 2 to Visit 4 for the following measurements: • HPWSQ-R hyperphagia behavior, drive, and severity domain scores. • Hyperphagia in Prader-Willi Syndrome Questionnaire-Responsiveness—completed by the clinician (HPWSQ-R-C) total score. • HPWSQ-R-C hyperphagia behavior, drive, and severity domain scores.
# 3. Change from Visit 1 to Visit 4 for the following measurements: • Children's Yale-Brown Obsessive Compulsive Scale (CY-BOCS) score. • Food Domain of the Reiss Profile.
# The primary endpoint was analyzed using an analysis of covariance model with treatment and site as fixed effects and HPWSQ-R total score at Visit 2 (baseline) as a covariate. The last observation carried forward method was used to carry forward non-missing values of HPWSQ-R total score during the phone call assessment (Day 8±1) to impute missing values of HPWSQ-R total score at Visit 4. The treatment group difference in total score between placebo and carbetocin was calculated by subtracting the mean change from baseline in placebo from that in the carbetocin group. A borderline statistically significant difference at the 10% significant level was achieved if the upper limit of the 90% 1-sided confidence interval for the treatment difference was less than zero. […]
compound,measurement,setting,value
CC[C@H](C)[C@@H]1NC(=O)[C@H](Cc2ccc(O)cc2)NC(=O)[C@@H](N)CSSC[C@@H](C(=O)N2CCC[C@H]2C(=O)N[C@@H](CC(C)C)C(=O)NCC(N)=O)NC(=O)[C@H](CC(N)=O)NC(=O)[C@H](CCC(N)=O)NC1=O [Oxytocin],hV2/hOT selectivity ratio (EC50 hV2/EC50 hOT),[1],3
carbetocin,"Clinical Global Impression, Least-Squares Mean Change Carbetocin vs. Placebo","[2]; Day 8, intranasal 28.8 mg/day",−0.9/0.0162
same,"HPWSQ-R-C Behavior domain score, Least-Squares Mean Change Carbetocin vs. Placebo","[2]; Day 8, intranasal 28.8 mg/day",−5.4/0.0017
same,"HPWSQ-R-C Drive domain score, Least-Squares Mean Change Carbetocin vs. Placebo","[2]; Day 8, intranasal 28.8 mg/day",−3.4/0.0019
same,"HPWSQ-R-C Severity domain score, Least-Squares Mean Change Carbetocin vs. Placebo","[2]; Day 8, intranasal 28.8 mg/day",−1.7/0.0061
same,"HPWSQ-R-C total score, Least-Squares Mean Change Carbetocin vs. Placebo","[2]; Day 8, intranasal 28.8 mg/day",−10.2/0.0017
same,"CY-BOCS, Least-Squares Mean Change Carbetocin vs. Placebo","[2]; Day 8, intranasal 28.8 mg/day",−2.7/0.0956
same,"Food Domain Score of Reiss Profile, Least-Squares Mean Change Carbetocin vs. Placebo","[2]; Day 8, intranasal 28.8 mg/day",−3.0/0.0184
same,"HPWSQ-R total score, Least-Squares Mean Change Carbetocin vs. Placebo","[2]; Day 8, intranasal 9.6 mg three times daily (28.8 mg/day)",−5.2/0.0632
same,"HPWSQ-R Behavior domain score, Least-Squares Mean Change Carbetocin vs. Placebo","[2]; Day 8, intranasal 28.8 mg/day",−1.9/0.1153
same,"HPWSQ-R Drive domain score, Least-Squares Mean Change Carbetocin vs. Placebo","[2]; Day 8, intranasal 28.8 mg/day",−2.1/0.0625
same,"HPWSQ-R Severity domain score, Least-Squares Mean Change Carbetocin vs. Placebo","[2]; Day 8, intranasal 28.8 mg/day",−1.1/0.0572
same,"Clinical Global Impression, Least-Squares Mean Change Carbetocin vs. Placebo","[2]; Day 15, intranasal 28.8 mg/day",−0.8/0.0233
same,"HPWSQ-R-C Behavior domain score, Least-Squares Mean Change Carbetocin vs. Placebo","[2]; Day 15, intranasal 28.8 mg/day",−4.3/0.0068
same,"HPWSQ-R-C Drive domain score, Least-Squares Mean Change Carbetocin vs. Placebo","[2]; Day 15, intranasal 28.8 mg/day",−2.6/0.0340
same,"HPWSQ-R-C Severity domain score, Least-Squares Mean Change Carbetocin vs. Placebo","[2]; Day 15, intranasal 28.8 mg/day",−2.2/0.0014
same,"HPWSQ-R-C total score, Least-Squares Mean Change Carbetocin vs. Placebo","[2]; Day 15, intranasal 28.8 mg/day",−10.5/0.0014
same,"CY-BOCS, Least-Squares Mean Change Carbetocin vs. Placebo","[2]; Day 15, intranasal 28.8 mg/day",−6.2/0.0047
same,"Food Domain Score of Reiss Profile, Least-Squares Mean Change Carbetocin vs. Placebo","[2]; Day 15, intranasal 28.8 mg/day",−4.4/0.0132
same,"HPWSQ-R Behavior domain score, Least-Squares Mean Change Carbetocin vs. Placebo","[2]; Day 15, intranasal 28.8 mg/day",−2.0/0.1172
same,"HPWSQ-R Drive domain score, Least-Squares Mean Change Carbetocin vs. Placebo","[2]; Day 15, intranasal 28.8 mg/day",−1.6/0.1436
same,"HPWSQ-R Severity domain score, Least-Squares Mean Change Carbetocin vs. Placebo","[2]; Day 15, intranasal 28.8 mg/day",−1.5/0.0248
same,"HPWSQ-R total score, Least-Squares Mean Change Carbetocin vs. Placebo","[2]; Day 15, intranasal 28.8 mg/day",−6.7/0.0290
same,"Improvement over placebo treated patients in HPWSQ-R, HPWSQ-R-C, CGI, CY-BOCS and Food Domain Score of Reiss Profile","[2]; Day 15 results, P<0.05",statistically significant improvement
same,hV2/hOT selectivity ratio (EC50 hV2/EC50 hOT),[1],244
